Results reported in ChEMBL document CHEMBL1201862, “PubChem BioAssay data set” (2004).
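The compound was tested at five concentrations on cells cultured in 96-well plates, with a 48-hour exposure period. Abbreviation: GI50, concentration required for 50% inhibition of growth.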 Active and inactive are the calls of the source. Rule as the data show it: active = GI50 up to about 1.1 µM and inactive = higher.

Columns and labels:
Experiment in all cases: NCI-60 cell line screen, 48 h
786-0 = system: 786-0
A498 = system: A498
A549 = system: A549
ACHN = system: ACHN
BT-549 = system: BT-549
CAKI-1 = system: CAKI-1
CCRF-CEM = system: CCRF-CEM
COLO 205 = system: COLO 205
DU-145 = system: DU-145
EKVX = system: EKVX
HCC 2998 = system: HCC 2998
HCT-116 = system: HCT-116
HCT-15 = system: HCT-15
HL-60 = system: HL-60
HOP-92 = system: HOP-92
HT-29 = system: HT-29
Hs-578T = system: Hs-578T
IGROV-1 = system: IGROV-1
K562 = system: K562
KM12 = system: KM12
LOX IMVI = system: LOX IMVI
M14 = system: M14
MCF7 = system: MCF7
MDA-MB-231 = system: MDA-MB-231
MDA-MB-435 = system: MDA-MB-435
MDA-N = system: MDA-N
MOLT-4 = system: MOLT-4
Malme-3M = system: Malme-3M
NCI-H226 = system: NCI-H226
NCI-H23 = system: NCI-H23
NCI-H460 = system: NCI-H460
NCI-H522 = system: NCI-H522
NCI/ADR-RES = system: NCI/ADR-RES
OVCAR-4 = system: OVCAR-4
OVCAR-5 = system: OVCAR-5
OVCAR-8 = system: OVCAR-8
PC-3 = system: PC-3
RPMI-8226 = system: RPMI-8226
RXF 393 = system: RXF 393
SF-268 = system: SF-268
SF-539 = system: SF-539
SK-MEL-28 = system: SK-MEL-28
SK-MEL-2 = system: SK-MEL-2
SK-MEL-5 = system: SK-MEL-5
SN12C = system: SN12C
SNB-19 = system: SNB-19
SNB-75 = system: SNB-75
SR = system: SR
SW-620 = system: SW-620
T47D = system: T47D
TK-10 = system: TK-10
U-251 = system: U-251
UACC-257 = system: UACC-257
UACC-62 = system: UACC-62
UO-31 = system: UO-31
HOP-62 = system: HOP-62
OVCAR-3 = system: OVCAR-3
SF-295 = system: SF-295
SK-OV-3 = system: SK-OV-3

SMILES: O=C1CSC2(CC(/C=C/c3cccc([N+](=O)[O-])c3)=NN2c2cccc(S(=O)(=O)O)c2)N1c1nc2ccccc2s1 (stereo unspecified)
- GI50 (786-0): 18 µM (inactive)
- GI50 (A498): 20.4 µM (inactive)
- GI50 (A549): 25.8 µM (inactive)
- GI50 (ACHN): 25.8 µM (inactive)
- GI50 (BT-549): 16.3 µM (inactive)
- GI50 (CAKI-1): 49.7 µM (inactive)
- GI50 (CCRF-CEM): 20.7 µM (inactive)
- GI50 (COLO 205): 50.8 µM (inactive)
- GI50 (DU-145): 19.6 µM (inactive)
- GI50 (EKVX): 44.8 µM (inactive)
- GI50 (HCC 2998): 35.6 µM (inactive)
- GI50 (HCT-116): 32.6 µM (inactive)
- GI50 (HCT-15): 18.1 µM
- GI50 (HL-60): 28.1 µM (inactive)
- GI50 (HOP-92): 9.46 µM (inactive)
- GI50 (HT-29): 31.4 µM (inactive)
- GI50 (Hs-578T): 55.3 µM (inactive)
- GI50 (IGROV-1): 13.9 µM (inactive)
- GI50 (K562): 28.6 µM (inactive)
- GI50 (KM12): 22 µM (inactive)
- GI50 (LOX IMVI): 13.6 µM (inactive)
- GI50 (M14): 30.7 µM (inactive)
- GI50 (MCF7): 17.6 µM (inactive)
- GI50 (MDA-MB-231): 19.1 µM (inactive)
- GI50 (MDA-MB-435): 18.5 µM (inactive)
- GI50 (MDA-N): 25.1 µM (inactive)
- GI50 (MOLT-4): 22.4 µM (inactive)
- GI50 (Malme-3M): 51.3 µM (inactive)
- GI50 (NCI-H226): 25.4 µM (inactive)
- GI50 (NCI-H23): 16.7 µM (inactive)
- GI50 (NCI-H460): 21.2 µM (inactive)
- GI50 (NCI-H522): 18.3 µM (inactive)
- GI50 (NCI/ADR-RES): 22.5 µM (inactive)
- GI50 (OVCAR-4): 25.2 µM (inactive)
- GI50 (OVCAR-5): 23.4 µM (inactive)
- GI50 (OVCAR-8): 13.8 µM (inactive)
- GI50 (PC-3): 21.4 µM (inactive)
- GI50 (RPMI-8226): 17.4 µM (inactive)
- GI50 (RXF 393): 34.2 µM (inactive)
- GI50 (SF-268): 26 µM (inactive)
- GI50 (SF-539): 29.6 µM (inactive)
- GI50 (SK-MEL-28): 57 µM (inactive)
- GI50 (SK-MEL-2): 22.9 µM (inactive)
- GI50 (SK-MEL-5): 28.1 µM (inactive)
- GI50 (SN12C): 22.4 µM (inactive)
- GI50 (SNB-19): 21 µM (inactive)
- GI50 (SNB-75): 20 µM (inactive)
- GI50 (SR): 19.6 µM (inactive)
- GI50 (SW-620): 26.8 µM (inactive)
- GI50 (T47D): 24.6 µM (inactive)
- GI50 (TK-10): 20 µM (inactive)
- GI50 (U-251): 17.6 µM (inactive)
- GI50 (UACC-257): 38.9 µM (inactive)
- GI50 (UACC-62): 19.1 µM (inactive)
- GI50 (UO-31): 19.6 µM (inactive)

SMILES: CC1(C)CCC[C@]2(C)[C@@H](C=O)C(C=O)=CC[C@@H]12 [POLYGODIAL]
- GI50 (786-0): 37 µM (inactive)
- GI50 (A498): 40.9 µM (inactive)
- GI50 (A549): 37.5 µM (inactive)
- GI50 (ACHN): 16.9 µM (inactive)
- GI50 (BT-549): 25.9 µM (inactive)
- GI50 (CAKI-1): 6.82 µM (inactive)
- GI50 (CCRF-CEM): 20.3 µM (inactive)
- GI50 (COLO 205): 18.2 µM (inactive)
- GI50 (DU-145): 18.5 µM (inactive)
- GI50 (EKVX): 24.8 µM (inactive)
- GI50 (HCC 2998): 18.4 µM (inactive)
- GI50 (HCT-116): 28.6 µM (inactive)
- GI50 (HCT-15): 17 µM
- GI50 (HL-60): 18.4 µM (inactive)
- GI50 (HOP-62): 30.6 µM (inactive)
- GI50 (HOP-92): 20.6 µM (inactive)
- GI50 (HT-29): 16.4 µM (inactive)
- GI50 (Hs-578T): 27.9 µM (inactive)
- GI50 (IGROV-1): 19 µM (inactive)
- GI50 (KM12): 14.7 µM (inactive)
- GI50 (LOX IMVI): 19.1 µM (inactive)
- GI50 (M14): 17.5 µM (inactive)
- GI50 (MCF7): 14.7 µM (inactive)
- GI50 (MDA-MB-231): 10.6 µM (inactive)
- GI50 (MDA-MB-435): 36.6 µM (inactive)
- GI50 (MDA-N): 13.6 µM (inactive)
- GI50 (MOLT-4): 9.33 µM (inactive)
- GI50 (Malme-3M): 15.2 µM (inactive)
- GI50 (NCI-H226): 20 µM (inactive)
- GI50 (NCI-H23): 28 µM (inactive)
- GI50 (NCI-H522): 15.8 µM (inactive)
- GI50 (NCI/ADR-RES): 18.6 µM (inactive)
- GI50 (OVCAR-3): 14.9 µM (inactive)
- GI50 (OVCAR-4): 15.8 µM (inactive)
- GI50 (OVCAR-5): 16.4 µM (inactive)
- GI50 (OVCAR-8): 16.4 µM (inactive)
- GI50 (PC-3): 27.7 µM (inactive)
- GI50 (RPMI-8226): 10.7 µM (inactive)
- GI50 (RXF 393): 17.1 µM (inactive)
- GI50 (SF-268): 15.3 µM (inactive)
- GI50 (SF-295): 21.9 µM (inactive)
- GI50 (SF-539): 19.3 µM (inactive)
- GI50 (SK-MEL-28): 43.2 µM (inactive)
- GI50 (SK-MEL-2): 18.1 µM (inactive)
- GI50 (SK-MEL-5): 15.6 µM (inactive)
- GI50 (SK-OV-3): 30.8 µM (inactive)
- GI50 (SN12C): 20.6 µM (inactive)
- GI50 (SNB-19): 18.2 µM (inactive)
- GI50 (SR): 18.2 µM (inactive)
- GI50 (SW-620): 35.4 µM (inactive)
- GI50 (T47D): 19.8 µM (inactive)
- GI50 (TK-10): 25.9 µM (inactive)
- GI50 (U-251): 19 µM (inactive)
- GI50 (UACC-257): 17.1 µM (inactive)
- GI50 (UACC-62): 18.4 µM (inactive)
- GI50 (UO-31): 16.4 µM (inactive)

SMILES: Oc1cc(O)c2c(c1)O[C@H](c1cc(O)c(O)c(O)c1)[C@@H](O)C2 [GALLOCATECHIN]
- GI50 (786-0): 18 µM (inactive)
- GI50 (A498): > 100 µM (inactive)
- GI50 (A549): 40.5 µM (inactive)
- GI50 (ACHN): 21.1 µM (inactive)
- GI50 (BT-549): 23.6 µM (inactive)
- GI50 (CAKI-1): 43.7 µM (inactive)
- GI50 (CCRF-CEM): 19.5 µM (inactive)
- GI50 (COLO 205): 19.3 µM (inactive)
- GI50 (DU-145): > 100 µM (inactive)
- GI50 (EKVX): 24.8 µM (inactive)
- GI50 (HCC 2998): > 10 µM (inactive)
- GI50 (HCT-116): 17.9 µM (inactive)
- GI50 (HCT-15): 40 µM
- GI50 (HL-60): 22.2 µM (inactive)
- GI50 (HOP-62): 17.5 µM (inactive)
- GI50 (HOP-92): > 10 µM (inactive)
- GI50 (Hs-578T): 46.6 µM (inactive)
- GI50 (IGROV-1): 18.8 µM (inactive)
- GI50 (K562): 18 µM (inactive)
- GI50 (LOX IMVI): 20.5 µM (inactive)
- GI50 (M14): 25.1 µM (inactive)
- GI50 (MCF7): 18.8 µM (inactive)
- GI50 (MDA-MB-231): 18.7 µM (inactive)
- GI50 (MDA-MB-435): 18.5 µM (inactive)
- GI50 (MDA-N): 21.1 µM (inactive)
- GI50 (MOLT-4): > 10 µM (inactive)
- GI50 (Malme-3M): > 100 µM (inactive)
- GI50 (NCI-H226): 28.8 µM (inactive)
- GI50 (NCI-H23): 23.5 µM (inactive)
- GI50 (NCI-H460): 19.2 µM (inactive)
- GI50 (NCI-H522): 17.5 µM (inactive)
- GI50 (NCI/ADR-RES): 36.2 µM (inactive)
- GI50 (OVCAR-3): 21.8 µM (inactive)
- GI50 (OVCAR-4): 22.4 µM (inactive)
- GI50 (OVCAR-5): 18.8 µM (inactive)
- GI50 (OVCAR-8): 16.2 µM (inactive)
- GI50 (PC-3): 30.7 µM (inactive)
- GI50 (RPMI-8226): 20.7 µM (inactive)
- GI50 (RXF 393): 17 µM (inactive)
- GI50 (SF-268): 23.6 µM (inactive)
- GI50 (SF-295): 24.4 µM (inactive)
- GI50 (SF-539): 18 µM (inactive)
- GI50 (SK-MEL-28): 43.3 µM (inactive)
- GI50 (SK-MEL-2): 24.6 µM (inactive)
- GI50 (SK-MEL-5): 19.1 µM (inactive)
- GI50 (SK-OV-3): 28.1 µM (inactive)
- GI50 (SN12C): 18.3 µM (inactive)
- GI50 (SNB-19): > 100 µM (inactive)
- GI50 (SNB-75): 17.9 µM (inactive)
- GI50 (SR): 19.6 µM (inactive)
- GI50 (SW-620): 17.3 µM (inactive)
- GI50 (T47D): 28.9 µM (inactive)
- GI50 (U-251): 19.7 µM (inactive)
- GI50 (UACC-257): > 100 µM (inactive)
- GI50 (UO-31): 18.2 µM (inactive)
